Measurements reported in patent publication US20060287347A1, “Methods for treating smooth muscle disorders using trospium” (priority 2005, published 2006).
Where two headings read alike, the source gives them in different places.

Key:
[1] = biological target: T1, human recombinant muscarinic receptor M-4 (Homo sapiens, UniProt P08173); test: Ligand binding, affinity for muscarinic receptors (M-4); settings: membranes from SF9 cells, radioligand 3H scopolamine methylchloride; read-out: Affinity (negative logarithm of the dissociation constant Ki), M-4 (converted)
T1 sequence (P08173 1-479): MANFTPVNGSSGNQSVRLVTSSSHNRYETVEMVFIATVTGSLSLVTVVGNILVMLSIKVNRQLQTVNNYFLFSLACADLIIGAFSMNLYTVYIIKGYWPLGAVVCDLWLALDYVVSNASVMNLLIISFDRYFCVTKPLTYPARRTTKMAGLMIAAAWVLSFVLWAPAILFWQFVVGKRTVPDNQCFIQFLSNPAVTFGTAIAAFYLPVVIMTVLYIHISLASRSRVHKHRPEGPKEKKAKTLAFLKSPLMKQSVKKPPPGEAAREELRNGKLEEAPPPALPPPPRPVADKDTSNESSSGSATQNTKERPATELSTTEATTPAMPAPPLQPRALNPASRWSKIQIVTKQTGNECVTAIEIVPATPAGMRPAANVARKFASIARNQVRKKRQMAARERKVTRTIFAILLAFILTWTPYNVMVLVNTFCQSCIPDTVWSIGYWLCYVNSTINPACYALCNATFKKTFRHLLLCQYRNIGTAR
Method: The experiments were carried out on membranes prepared from SF9 cells that expressed human recombinant muscarinic receptor subtypes. After incubation with the test article and the proper radioligand (^3H scopolamine methylchloride) and washing, bound radioactivity was determined with a liquid scintillation counter, using a commercial scintillation cocktail. The specific radioligand binding to a muscarinic receptor was defined as the difference between total binding and nonspecific binding determined in the presence of an excess of unlabelled atropine.

[2] = test system: carbachol-induced contractions of urinary bladder strips; test: Antimuscarinic activity on bladder smooth muscle strips (carbachol-induced contractions); format: cell-based, guinea pig; settings: Cavia porcellus, read-out: KB, inhibition of carbachol-induced contractions
Method: • Experiments have now been performed using methods described by Kachur et al, 1988, J Pharmacol Exp Ther 247: 867-872) and Noronha-Blob et al. J Pharmacol Exp Ther 256: 562-567). Strips of tissue (approximately 10 mm long and 1.5 mm wide) were removed from the urinary bladder of male guinea pigs. The tissues were suspended in an oxygenated buffer of the following composition, in mM: NaCl 133; KCl 4.7; CaCl2 2.5; MgSO4 0.6; […] The smooth muscle strips were maintained at or about 37.5° C. in tissue chambers and allowed to equilibrate with the bathing solution for one hour before proceeding with the experiment. […] R., Wright S. E., Aberg […]. 1998, 48: 1012-1018).

learning behavior = test: Cognitive side effects, Test Protocol 1: T-shaped maze learning; format: in vivo, rat; settings: for Effect on learning behavior (time to choose the correct arm of the T-maze): conscious rats, naive animals
Method: Conscious rats are used. The animals are placed at the base of a T-shaped maze with a reward placed in one of the arms of the maze. The effect of the test article on learning is determined by investigating the time it takes in the maze before the rats choose the correct arm of the maze. Experiments were also performed in rats that had been pretreated with phenylephrine to increase the permeability of the blood-brain barrier. Control groups of animals were treated with placebo (vehicle only) or with oxybutynin.

[3] = test system: behavioral, neurological, autonomic and toxicity changes; test: Cognitive side effects, Test Protocol 2: modified Irwin test; format: in vivo, mouse; settings: oral dosing
Method: Modified Irwin tests were performed. This is a routine neuro-pharmacological test method. Conscious mice were used. The procedure involved an initial phase of undisturbed observation and a later manipulative phase. An animal's assessment started by observing its undisturbed behavior in housing (body position, locomotor activity, etc.). Thereafter the animal was transferred by tail on the working table for the manipulative phase (spatial locomotion, gait, aggressiveness, etc.). The occurrence of any unexpected state was noted. The responses to test substances were assessed at 60 min, 120 min and 24 hrs after dosing. Animals were dose orally with trospium chloride, some groups of animals had been pretreated with phenylephrine to increase the permeability of the blood-brain barrier. Criteria included behavioral, neurological, autonomic and toxicity changes in comparison with vehicle-treated groups. The results were expressed for each group as the number of animals displaying behavioral changes versus the corresponding control group at each observation time. No statistical analysis was carried out since the lack of statistically significant differences were obvious to the investigator.

[4] = male guinea pig urinary bladder strips

Row | SMILES | Ki [1] [nM] | Kb [2, 4] [nM] | Effect on learning behavior (time to choose the correct arm of the T-maze) (learning behavior; ongoing studies) | Kb [2] [nM] | other results
1 | NC(=O)C(c1ccccc1)(c1ccccc1)[C@@H]1CCN(CCc2ccc3c(c2)CCO3)C1 [Darifenacin] | 39.8 |  |  |  | 
2 | CCN(CC)CC#CCOC(=O)C(O)(c1ccccc1)C1CCCCC1 (stereo not drawn) [Oxybutynin] |  | 1.5 to 5.5 | learning is delayed |  | 
3 | Cc1ccc(O)c([C@H](CCN(C(C)C)C(C)C)c2ccccc2)c1 [Tolterodine] | 12.6 |  |  | 1.5 to 5.5 | 
4 | O=C(O[C@H]1C[C@H]2CC[C@@H](C1)[N+]21CCCC1)C(O)(c1ccccc1)c1ccccc1 [Trospium, endo-3-[(hydroxydiphenyl-acetyl)oxy]spiro[8-azoniabicyclo[3.2.1]octane-8,1′-pyrrolidinium]chloride] |  |  | does not influence the learning behavior | 1.5 to 5.5 | Further impairment of learning behavior (learning behavior; rats in which a learning disorder has been induced with oxybutynin, ongoing studies): no further impairment of learning behavior; Impairment of learning behavior after phenylephrine pretreatment (learning behavior; rats pretreated with phenylephrine to increase blood-brain barrier permeability): did not uncover any impairment of learning behavior; Behavioral changes in modified Irwin test versus control group ([3]; conscious mice, assessed at 60 min, 120 min and 24 hrs): did not influence the test results; Behavioral changes in modified Irwin test after phenylephrine pretreatment ([3]; mice pretreated with phenylephrine to increase BBB permeation): no significant effects
5 | CC(CC(c1ccccc1)c1ccccc1)NC(C)(C)C (stereo not drawn) [terodiline] |  | 1.5 to 5.5 |  |  | 
